Experimental data reported in US20240309043A1, “THERAPEUTICALLY ACTIVE STEROIDAL DERIVATIVES” (Organon R&D Finland Ltd., priority 2017, published 2024).

How the values were obtained:
Format in all cases: biochemical
[1] = target: T1, recombinant human 17β-HSD2 (Homo sapiens, UniProt P37059); test: Inhibition of recombinant human 17β-HSD2; settings: inhibitor 1 μM; 50 nM estradiol, 1 mM NADH, 30 min RT
T1 construct: made in house; host or cells: Sd9 (Sf9) insect cells, baculovirus (Bac to Bac Expression System)
T1 sequence (P37059 1-387): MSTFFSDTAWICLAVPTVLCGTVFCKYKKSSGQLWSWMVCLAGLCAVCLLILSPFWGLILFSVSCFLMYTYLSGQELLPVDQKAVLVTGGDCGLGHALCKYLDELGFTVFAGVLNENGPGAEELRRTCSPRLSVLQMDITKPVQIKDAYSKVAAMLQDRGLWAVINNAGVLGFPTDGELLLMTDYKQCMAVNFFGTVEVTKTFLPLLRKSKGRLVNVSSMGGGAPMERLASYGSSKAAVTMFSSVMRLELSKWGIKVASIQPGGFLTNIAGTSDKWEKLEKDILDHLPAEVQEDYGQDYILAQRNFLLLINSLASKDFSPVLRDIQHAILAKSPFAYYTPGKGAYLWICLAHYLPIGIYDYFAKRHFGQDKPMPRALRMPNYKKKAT
Experimental: 17β-HSD2 production and isolation: Similarly to 17β-HSD1 the Recombinant baculovirus was generated by the “Bac to Bac Expression System” (Invitrogen). Recombinant bacmid was transfected to Sd9 insect cells using “Cellfectin Reagent” (Invitrogen). 60 h later cells were harvested and supernatant were fractionated by the following protocol: • cells were dissolved into 40 ml of A-buffer (40 mM TRIS, pH 8.0, 20% glycerol, 20 μM NAD, 0.4 mM PMSF, 150 mM NaCl, 0.5% dodecyl-β-maltoside+protease inhibitor cocktail) • cells were sonicated • lysate was incubated on ice for 15 min • lysate was centrifuged 5000 rpm 15 min, +4° C. • centrifugation of the supernatant 180 000 g 30 min, +4° C. • pellet was dissolved into 8 ml of A-buffer • not resuspended material was removed by centrifugation 5000 rpm min, +4° C. • the clear supernatant was divided into 100 μl aliquots and were stored frozen until determination of enzymatic activity.
The amount of 17β-HSD2 was analysed by immunoblotting and total protein concentration of each extract batch was determined.
Assay—Inhibition of recombinant human 17β-HSD2: Recombinant protein (4 μg/ml) was incubated in 20 mM KH2PO4 pH 8.5 with 50 nM estradiol (including 800 000 cpm/ml of ^3H-estradiol) and 1 mM NADH for 30 min at RT, in the presence of the potential inhibitor at concentrations 1 μM or 0.1 μM. Inhibitor stock solutions were prepared in DMSO. Final concentration of DMSO was adjusted to 1% in all samples. The enzyme reaction was stopped by addition of 10% trichloroacetic acid (final concentration). Samples were centrifuged in a microtiter plate at 4000 rpm for 10 min. Supernatants were applied to reverse phase HPLC on a Waters Symmetry C18 column, equipped with a Waters Sentry Guard column. Isocratic HPLC runs were performed at RT at a flow rate of 1 ml/min in acetonitrile:water 48:52 as running solvent. Radioactivity was monitored in the eluate by a Scintillation Analyzer. Total radioactivity for estrone and estradiol were determined in each sample and percent conversion of estradiol to estrone was calculated according to the following formula:
(§1) [formula] Percent inhibition was calculated flowingly: % inhibition=100−% conversion

[2] = target: T2, recombinant human 17β-HSD1 (Homo sapiens, UniProt P14061); test: Inhibition of recombinant human 17β-HSD1; settings: inhibitor 100 nM; 30 nM estrone, 1 mM NADPH, 30 min RT
T2 construct: made in house; host or cells: Sd9 (Sf9) insect cells, baculovirus (Bac to Bac Expression System)
T2 sequence (P14061 1-328): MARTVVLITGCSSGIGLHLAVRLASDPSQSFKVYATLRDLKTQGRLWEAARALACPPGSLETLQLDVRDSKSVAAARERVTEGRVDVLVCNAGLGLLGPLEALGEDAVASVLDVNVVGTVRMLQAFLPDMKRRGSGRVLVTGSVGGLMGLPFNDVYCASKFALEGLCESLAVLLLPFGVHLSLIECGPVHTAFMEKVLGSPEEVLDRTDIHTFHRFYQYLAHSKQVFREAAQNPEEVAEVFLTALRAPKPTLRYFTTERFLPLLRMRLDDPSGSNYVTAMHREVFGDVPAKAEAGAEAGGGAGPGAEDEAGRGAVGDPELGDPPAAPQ
Experimental: 17β-HSD1 production and isolation: Recombinant baculovirus was generated by the “Bac to Bac Expression System” (Invitrogen). Recombinant bacmid was transfected to Sd9 insect cells using “Cellfectin Reagent” (Invitrogen). 60 h later cells were harvested; the microsomal fraction was isolated as described by Puranen, T. J., Poutanen, M. H., Peltoketo, H. E., Vihko, P. T. and Vihko, R. K. (1994) Site-directed mutagenesis of the putative active site of human 17 β-hydroxysteroid dehydrogenase type 1. Biochem. J. 304: 289-293. Aliquots were stored frozen until determination of enzymatic activity.
Assay—Inhibition of recombinant human 17β-HSD1: Recombinant protein (1 μg/ml) was incubated in 20 mM KH2PO4 pH 7.4 with 30 nM estrone (including 800 000 cpm/ml of ^3H-estrone) and 1 mM NADPH for 30 min at RT, in the presence of the potential inhibitor at concentrations 1 μM or 0.1 μM. Inhibitor stock solutions were prepared in DMSO. Final concentration of DMSO was adjusted to 1% in all samples. The enzyme reaction was stopped by addition of 10% trichloroacetic acid (final concentration). Samples were centrifuged in a microtiter plate at 4000 rpm for 10 min. Supernatants were applied to reverse phase HPLC on a Waters Symmetry C18 column, equipped with a Waters Sentry Guard column. Isocratic HPLC runs were performed at RT at a flow rate of 1 ml/min in acetonitrile:water 48:52 as running solvent. Radioactivity was monitored in the eluate by a Scintillation Analyzer. Total radioactivity for estrone and estradiol were determined in each sample and percent conversion of estrone to estradiol was calculated according to the following formula:
as §1

[3] = tested on: HSD1 enzyme that is expressed in rabbit placenta tissue; test: Inhibition of E1 to E2 conversion in rabbit placenta tissue homogenate; settings: inhibitor 100 nM, 30 nM estrone, 30 min
Experimental: The assay is based on an enzymatic reaction where HSD1 enzyme that is expressed in rabbit placenta tissue converts its natural substance estrone (E1) to estradiol (E2) in the presence of a co-factor β-NADPH.
Homogenization of rabbit placenta tissue: Weight a piece of the frozen tissue into a Precellys ck28 bead tube. Add buffer solution (20 mM KH2PO4 with 1 mM EDTA, pH 7,4) in 1:2 ratio (e.g. 300 mg of tissue:600 μl reaction buffer solution). Insert the bead tubes to homogenizer and homogenize 2×30 s. 6000 rpm. Centrifugated 5 min., 2600 rpm at +4° C. and collect supernatant. Aliquots of homogenate are stored in −80° C.
Assay—Inhibition of E1 to E2 conversion in rabbit placenta tissue: The reaction takes place in a buffer solution (20 mM KH2PO4 with 1 mM EDTA, pH 7,4), including appropriate amount of rabbit placenta homogenate, co-factor (1 mM β-NADPH), Substrate (30 nM estrone), labelled substrate as tracer (5 nM [^3H]-estrone). During a 30-minute incubation part of the estrone is converted to estradiol. The reaction is stopped by lowering the pH to 1 with 10% trichloro acetic acid (TCA). The substrate and conversion products are analyzed by HPLC and a Scintillation counter analyzer. Total radioactivity for estrone and estradiol were determined in each sample and percent conversion of estrone to estradiol was calculated according to the following formula:
Percent inhibition was calculated flowingly: % inhibition=100−% conversion.

Compound | inhibition at 1 µM [1] | inhibition at 0.1 µM [2] | Rabbit placenta inhibition % @100 nM [3] | HSD2 inhibition % @1 μM [1]
COc1ccc(NC(=O)CC[C@@H]2C/C(=N\O)[C@@]3(C)CCC4c5ccc(Cl)cc5CCC4C23)nn1 (stereo partly drawn) [Compound 50, 3-((13S,15R,E)-3-chloro-17-(hydroxyimino)-13-methyl-7,8,9,11,12,13,14,15,16,17-decahydro-6H-cyclopenta[a]phenanthren-15-yl)-N-(6-methoxypyridazin-3-yl)propanamide] | -2% | 37% | 42% | –
CCN(CC)C(=O)CC[C@@H]1C/C(=N\O)[C@@]2(C)CCC3c4ccc(Cl)cc4CCC3C12 (stereo partly drawn) [Compound 52, 3-((13S,15R,E)-3-chloro-17-(hydroxyimino)-13-methyl-7,8,9,11,12,13,14,15,16,17-decahydro-6H-cyclopenta[a]phenanthren-15-yl)-N,N-diethylpropanamide] | 2% | 64% | 6% | –
Cc1cc(NC(=O)CC[C@@H]2C/C(=N\O)[C@@]3(C)CCC4c5ccc(Cl)cc5CCC4C23)no1 (stereo partly drawn) [Compound 54, 3-((13S,15R,E)-3-chloro-17-(hydroxyimino)-13-methyl-7,8,9,11,12,13,14,15,16,17-decahydro-6H-cyclopenta[a]phenanthren-15-yl)-N-(5-methylisoxazol-3-yl)propanamide] | 0% | 47% | 10% | –
C[C@]12CCC3c4ccc(Cl)cc4CCC3C1[C@H](CCC(=O)Nc1ccc(F)cn1)C/C2=N\O (stereo partly drawn) [Compound 58, 3-((13S,15R,E)-3-chloro-17-(hydroxyimino)-13-methyl-7,8,9,11,12,13,14,15,16,17-decahydro-6H-cyclopenta[a]phenanthren-15-yl)-N-(5-fluoropyridin-2-yl)propanamide] | 18% | 60% | 1% | –
Cc1cccnc1NC(=O)CC[C@@H]1C/C(=N\O)[C@@]2(C)CCC3c4ccc(Cl)cc4CCC3C12 (stereo partly drawn) [Compound 60, 3-((13S,15R,E)-3-chloro-17-(hydroxyimino)-13-methyl-7,8,9,11,12,13,14,15,16,17-decahydro-6H-cyclopenta[a]phenanthren-15-yl)-N-(3-methylpyridin-2-yl)propanamide] | 2% | 38% | 4% | –
C[C@]12CCC3c4ccc(Cl)cc4CCC3C1[C@H](CCC(=O)Nc1ncccc1F)C/C2=N\O (stereo partly drawn) [Compound 62, 3-((13S,15R,E)-3-chloro-17-(hydroxyimino)-13-methyl-7,8,9,11,12,13,14,15,16,17-decahydro-6H-cyclopenta[a]phenanthren-15-yl)-N-(3-fluoropyridin-2-yl)propanamide] | – | 45% | 3% | −8%
Cc1cnc(NC(=O)CC[C@@H]2C/C(=N\O)[C@@]3(C)CCC4c5ccc(Cl)cc5CCC4C23)o1 (stereo partly drawn) [Compound 64, 3-((13S,15R,E)-3-chloro-17-(hydroxyimino)-13-methyl-7,8,9,11,12,13,14,15,16,17-decahydro-6H-cyclopenta[a]phenanthren-15-yl)-N-(5-methyloxazol-2-yl)propanamide] | 0% | 26% | 5% | –
COc1ccc(NC(=O)CC[C@@H]2C/C(=N\O)[C@@]3(C)CCC4c5ccc(Cl)cc5CCC4C23)nc1 (stereo partly drawn) [Compound 66, 3-((13S,15R,E)-3-chloro-17-(hydroxyimino)-13-methyl-7,8,9,11,12,13,14,15,16,17-decahydro-6H-cyclopenta[a]phenanthren-15-yl)-N-(5-methoxypyridin-2-yl)propanamide] | 23% | 72% | 14% | –
C[C@]12CCC3c4ccc(Cl)cc4CCC3C1[C@H](CCC(=O)Nc1ccccn1)C/C2=N\O (stereo partly drawn) [Compound 68, 3-((13S,15R,E)-3-chloro-17-(hydroxyimino)-13-methyl-7,8,9,11,12,13,14,15,16,17-decahydro-6H-cyclopenta[a]phenanthren-15-yl)-N-(pyridin-2-yl)propanamide] | 3% | 67% | 12% | –
Cc1ccnc(NC(=O)CC[C@@H]2C/C(=N\O)[C@@]3(C)CCC4c5ccc(Cl)cc5CCC4C23)c1 (stereo partly drawn) [Compound 70, 3-((13S,15R,E)-3-chloro-17-(hydroxyimino)-13-methyl-7,8,9,11,12,13,14,15,16,17-decahydro-6H-cyclopenta[a]phenanthren-15-yl)-N-(4-methylpyridin-2-yl)propanamide] | 4% | 81% | −7% | –
C[C@]12CCC3c4ccc(Cl)cc4CCC3C1[C@H](CCC(=O)Nc1ccc(C#N)cn1)C/C2=N\O (stereo partly drawn) [Compound 72, 3-((13S,15R,E)-3-chloro-17-(hydroxyimino)-13-methyl-7,8,9,11,12,13,14,15,16,17-decahydro-6H-cyclopenta[a]phenanthren-15-yl)-N-(5-cyanopyridin-2-yl)propanamide] | 7% | 52% | 26% | –
